Data set [1] deals with Bovine brain tubulin (Bos taurus, UniProt P81947+Q6B856). Put plainly: In vitro tubulin polymerization assay. The class given is biochemical. The conditions noted are these: for Inhibition of tubulin polymerization: 20 min incubation, compared to vehicle.
Data set [2] in a line: Metabolite identification in human liver microsomes. The class given is in vitro ADME. The conditions noted are these: 50 μM compound, 1 mg/mL microsomal protein, high resolution MS. In general terms: Microsomes from liver hold many membrane-bound enzymes, among them those of drug oxidation.
Data set [3] is described as follows: Microsomal stability assay, human liver microsomes. The class given is in vitro ADME. The conditions noted are these: for T1/2 in human liver microsomes: 0.5 μM compound, 1 mg/mL microsomal protein; for Fold improvement of metabolic stability in human microsomes: compared to parent SMART compound.
Data set [4] can be described thus: Microsomal stability assay, mouse liver microsomes. To be noted: 0.5 μM compound, 1 mg/mL microsomal protein. The class given is in vitro ADME.
A short description of data set [5]: Microsomal stability assay, rat liver microsomes. To be noted: 0.5 μM compound, 1 mg/mL microsomal protein. The class given is in vitro ADME.
For data set [6] the following is noted: cited from earlier work.
The conditions of data set [7]: cited from earlier work. The source holds these as a separate data set.
For data set [8], the system named is LNCaP. Put plainly: Antiproliferative SRB assay, LNCaP prostate cancer cells. The class given is cell-based, human. To be noted: compared to SMART compound 10 and 4. (Sulforhodamine B stains cellular protein and so reports cell mass.)
Data set [9] deals with A375. Put plainly: Antiproliferative SRB assay, A375 melanoma cells. The class given is cell-based. The conditions noted are these: compared to SMART compound 10 and 4.
Data set [10] is described as follows: Microsomal stability, over the tested liver microsome species. The class given is in vitro ADME. The conditions noted are these: mouse, rat.
Data set [11] relates to prostate cancer cells. As to the kind of experiment: Antiproliferative activity, prostate cancer cells overall. The class given is cell-based, human. To be noted: compared to parent PAT compound.

Where “and” joins values, the source holds several entries; their conditions need not be identical. Equal values may be shown once. Read-outs that look alike come from different tables or passages of the source.

Sequence of Bovine brain tubulin (Q6B856 whole entry): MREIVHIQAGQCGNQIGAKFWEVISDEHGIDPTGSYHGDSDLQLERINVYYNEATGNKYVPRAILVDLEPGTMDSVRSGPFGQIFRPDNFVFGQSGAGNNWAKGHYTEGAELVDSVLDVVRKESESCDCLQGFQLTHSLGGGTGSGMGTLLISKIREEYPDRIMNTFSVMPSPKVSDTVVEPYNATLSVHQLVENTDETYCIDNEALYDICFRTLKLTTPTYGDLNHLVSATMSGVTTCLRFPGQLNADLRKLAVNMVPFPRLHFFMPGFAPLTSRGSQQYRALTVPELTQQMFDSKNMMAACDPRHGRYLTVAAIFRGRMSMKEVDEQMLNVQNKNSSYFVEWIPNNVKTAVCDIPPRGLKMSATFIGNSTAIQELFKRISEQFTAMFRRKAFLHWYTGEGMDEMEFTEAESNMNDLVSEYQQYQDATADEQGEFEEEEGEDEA
Sequence of Bovine brain tubulin (P81947 whole entry): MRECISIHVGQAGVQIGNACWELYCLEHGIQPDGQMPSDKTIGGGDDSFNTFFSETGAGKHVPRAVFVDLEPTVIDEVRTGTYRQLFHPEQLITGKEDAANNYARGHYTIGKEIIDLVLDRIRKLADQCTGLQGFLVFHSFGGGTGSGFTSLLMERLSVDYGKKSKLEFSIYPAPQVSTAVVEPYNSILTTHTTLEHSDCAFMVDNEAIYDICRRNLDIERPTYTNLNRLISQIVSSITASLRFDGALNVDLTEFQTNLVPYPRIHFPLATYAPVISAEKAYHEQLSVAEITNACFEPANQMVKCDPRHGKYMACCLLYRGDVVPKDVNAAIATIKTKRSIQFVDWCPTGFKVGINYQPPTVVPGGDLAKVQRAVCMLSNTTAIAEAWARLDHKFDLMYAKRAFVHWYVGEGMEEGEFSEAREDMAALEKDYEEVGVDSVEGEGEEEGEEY

Turning to “2-(1H-Indol-3-yl)-4-(3,4,5-trimethoxyphenyl)-1H-benzo[d]imidazole [compound 4]”, the “Inhibition of tubulin polymerization” value in data set [1] (5 μM) amounted to 30%; in data set [1] (10 μM) it was 60%. For the same compound, in [2], the “Major metabolites / metabolic pathway” value is “o-demethylation (M9) and monohydroxylation (M10) are the major products”. In [3], the “T1/2 in human liver microsomes” value is 0.85 h and 0.845 ± 0.02 h. The “Fold improvement of metabolic stability in human microsomes” value in data set [3] is 2–3 fold. In addition, the “T1/2 in mouse liver microsomes” value in [4] is 0.892 ± 0.04 h. In addition, in data set [5], the “T1/2 in rat liver microsomes” value is 1.2 ± 0.0767 h.

Turning to `COc1cc(C(=O)c2csc(Nc3ccccc3)n2)cc(OC)c1OC` [PAT], the Oral bioavailability in data set [6] is 21%. The “Oral bioavailability (F)” value in [6] (reference not given) was over 30%.

In the case of `COc1cc(C(=O)c2csc(-c3ccccc3)n2)cc(OC)c1OC` [SMART 10], the “T1/2 in mouse liver microsomes” value in [7] is “≪5 min”.

One may read the inhibition as the relative decrease from the control value, in per cent. As to `COc1cc(-c2nccc3[nH]c(-c4ccc5[nH]ccc5c4)nc23)cc(OC)c1OC` [compound 7, 2-(1H-Indol-5-yl)-4-(3,4,5-trimethoxyphenyl)-1H-imidazo[4,5-c]pyridine], the “Fold improvement of IC50 against LNCaP” value in [8] is reported as “at least 5 fold”. In addition, the “Fold improvement of IC50 against A375” value in [9] is listed as “at least 5 fold”. The inhibition at 5 µM in [1] (read-out: Inhibition of tubulin polymerization) was about 33%. Further, the “Major metabolites / metabolic pathway” value in [2] is on record as “M14 is the major metabolite”. In data set [3], the “Fold improvement of metabolic stability in human microsomes” value was 2–3 fold.

As a reminder, the half-life is the time in which the quantity being followed falls by half. With `COCOc1c(OC)cc(C(=O)c2csc(-c3ccccc3)n2)cc1OC` [compound 15, (3,5-Dimethoxy-4-(methoxymethoxy)phenyl)(2-phenylthiazol-4-yl)methanone], the half-life at 0.5 μM in data set [10] (human, liver microsomes, pH 7.4) is under 0.167 h. Further, the “Major metabolites / metabolic pathway” value in [2] was “removal of the MOM group to form M1 is the major metabolic pathway”.

Turning to `COc1cc(C(=O)c2csc(Nc3ccc4[nH]ccc4c3)n2)cc(OC)c1OC` [compound 33, (2-((1H-Indol-5-yl)amino)thiazol-4-yl)(3,4,5-trimethoxyphenyl)methanone], the “Fold change of IC50 on prostate cancer cells” value in [11] is recorded as 2–3 fold.

As to “(4-(2-Aminoethyl)-3,5-dimethoxyphenyl)(2-phenylthiazol-4-yl)methanone [compound 18]”, the “T1/2 in the tested liver microsomes species” value in [10] (summary over human) was in the range of 1.83 to 3.75 h. In data set [2], the “Major metabolites / metabolic pathway” value is “M6 (dealkylation) and M8 (ketone reduction) are the major metabolites”. For the same compound, the “T1/2 in human liver microsomes” value in [3] came to 1.833 ± 0.0917 h. Moreover, the “T1/2 in mouse liver microsomes” value in data set [4] is 2.05 ± 0.128 h. For the same compound, the “T1/2 in rat liver microsomes” value in data set [5] amounted to 3.75 ± 0.21 h.

The values are drawn from PMC4161160 (Journal of Medicinal Chemistry, 2014).
